Source: patent US20160158377A1, “BCL-XL Inhibitory Compounds and Antibody Drug Conjugates Including the Same” (AbbVie Inc., priority 2014, published 2016)
Read-outs that look alike come from different tables or passages of the source.

Columns and labels:
[1] = target: Bcl-xL (Homo sapiens, UniProt Q07817); assay: TR-FRET Bcl-xL binding assay (competition with probe F-Bak)
Experimental: For the assay, test compounds were serially diluted in DMSO starting at 50 μM (2× starting concentration; 10% DMSO) and 10 μL transferred into a 384-well plate. 10 μL of a protein/probe/antibody mix was then added to each well at final concentrations listed below:
The samples were then mixed on a shaker for 1 minute and incubated for an additional 2 hours at room temperature. For each assay plate, a probe/antibody and protein/antibody/probe mixture were included as a negative and a positive control, respectively. Fluorescence was measured on the Envision (Perkin Elmer) using a 340/35 nm excitation filter and 520/525 (F-Bak) and 495/510 nm (Tb-labeled anti-his antibody) emission filters. Dissociation constants (Ki) were determined using Wang's equation (Wang, 1995, FEBS Lett. 360:111-114). The TR-FRET assay can be performed in the presence of varying concentrations of human serum (HS) or fetal bovine serum (FBS). Compounds were tested both without HS and in the presence of 1% HS.

[2] = tested on: Molt-4 human acute lymphoblastic leukemia cells; assay: Molt-4 cell viability assay; format: cell-based; conditions: 10% human serum, 48 hours, CellTiter-Glo, read-out: Molt-4 Viability EC50 (nM, 10% HS)
Experimental: In one exemplary set of conditions, Molt-4 (ATCC, Manassas, Va.) human acute lymphoblastic leukemia cells were plated 12,500 cells per well in 384-well tissue culture plates (Corning, Corning, N.Y.) in a total volume of 25 μL tissue culture medium supplemented with 10% human serum (Sigma-Aldrich, St. Louis, Mo.) and treated with a 3-fold serial dilution of the compounds of interest from 10 μM to 0.0005 μM. Each concentration was tested in duplicate at least 3 separate times. The number of viable cells following 48 hours of compound treatment was determined using the CellTiter-Glo® Luminescent Cell Viability Assay according to the manufacturer's recommendations (Promega Corp., Madison, Wis.). Compounds were tested in the presence of 10% HS.

[3] = in the presence of 1% human serum (HS), read-out: Bcl-xL Binding Ki (nM, 1% HS)
[4] = without human serum, read-out: Bcl-xL Binding Ki

Sequence of Bcl-xL (Q07817 whole entry): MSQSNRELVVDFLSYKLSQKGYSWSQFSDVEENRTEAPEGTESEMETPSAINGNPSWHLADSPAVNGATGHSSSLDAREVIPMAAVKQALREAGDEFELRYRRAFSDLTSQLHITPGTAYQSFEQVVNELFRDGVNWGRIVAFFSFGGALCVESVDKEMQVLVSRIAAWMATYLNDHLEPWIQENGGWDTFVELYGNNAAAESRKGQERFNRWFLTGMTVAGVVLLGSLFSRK

| Ki [1, 3] | Ki [1, 4] | EC50 [2] | Structure (SMILES) |
| --- | --- | --- | --- |
| 0.29 nM | < 0.001 nM | 432 nM | CNCCOC12CC3(C)CC(C)(CC(Cn4ncc(-c5ccc(-c6ccc7cccc(C(=O)Nc8nc9cccnc9s8)c7c6)nc5C(=O)O)c4C)(C3)C1)C2 [Compound W3.07, 3-[1-({3,5-dimethyl-7-[2-(methylamino)ethoxy]tricyclo[3.3.1.1^3,7]dec-1-yl}methyl)-5-methyl-1H-pyrazol-4-yl]-6-[8-([1,3]thiazolo[5,4-b]pyridin-2-ylcarbamoyl)naphthalen-2-yl]pyridine-2-carboxylic acid] |
| 0.013 nM | < 0.001 nM | 40 nM | CNCCOC12CC3(C)CC(C)(CC(Cn4ncc(-c5ccc(-c6ccc7cccc(C(=O)Nc8nc9ncccc9s8)c7c6)nc5C(=O)O)c4C)(C3)C1)C2 [Compound W3.08, 3-[1-({3,5-dimethyl-7-[2-(methylamino)ethoxy]tricyclo[3.3.1.1^3,7]dec-1-yl}methyl)-5-methyl-1H-pyrazol-4-yl]-6-[8-([1,3]thiazolo[4,5-b]pyridin-2-ylcarbamoyl)naphthalen-2-yl]pyridine-2-carboxylic acid] |
| 0.14 nM | < 0.001 nM | 3.8 nM | CNCCOC12CC3(C)CC(C)(CC(Cn4ncc(-c5ccc(N6CCc7c(OC)ccc(C(=O)Nc8nc9ccccc9s8)c7C6)nc5C(=O)O)c4C)(C3)C1)C2 [Compound W3.09, 6-[8-(1,3-benzothiazol-2-ylcarbamoyl)-5-methoxy-3,4-dihydroisoquinolin-2(1H)-yl]-3-[1-({3,5-dimethyl-7-[2-(methylamino)ethoxy]tricyclo[3.3.1.1^3,7]dec-1-yl}methyl)-5-methyl-1H-pyrazol-4-yl]pyridine-2-carboxylic acid] |
| 0.94 nM | < 0.001 nM | 34.3 nM | CNCCOC12CC3(C)CC(C)(CC(Cn4ncc(-c5ccc(-c6ccc7nccc(C(=O)Nc8nc9ccccc9s8)c7c6)nc5C(=O)O)c4C)(C3)C1)C2 [Compound W3.11, 6-[4-(1,3-benzothiazol-2-ylcarbamoyl)quinolin-6-yl]-3-[1-({3,5-dimethyl-7-[2-(methylamino)ethoxy]tricyclo[3.3.1.1^3,7]dec-1-yl}methyl)-5-methyl-1H-pyrazol-4-yl]pyridine-2-carboxylic acid] |
| 0.051 nM | 0.0042 nM | 2.6 nM | COCCNCCOC12CC3(C)CC(C)(CC(Cn4ncc(-c5ccc(N6CCc7c(OC)ccc(C(=O)Nc8nc9ccccc9s8)c7C6)nc5C(=O)O)c4C)(C3)C1)C2 [Compound W3.12, 6-[8-(1,3-benzothiazol-2-ylcarbamoyl)-5-methoxy-3,4-dihydroisoquinolin-2(1H)-yl]-3-{1-[(3-{2-[(2-methoxyethyl)amino]ethoxy}-5,7-dimethyltricyclo[3.3.1.1^3,7]dec-1-yl)methyl]-5-methyl-1H-pyrazol-4-yl}pyridine-2-carboxylic acid] |
| 6.8 nM | 0.013 nM | 2290 nM | Cc1c(-c2ccc(N3CCc4c(C#N)ccc(C(=O)Nc5nc6ccccc6s5)c4C3)nc2C(=O)O)cnn1CC12CC3(C)CC(C)(C1)CC(OCCN)(C3)C2 [Compound W3.13, 3-(1-{[3-(2-aminoethoxy)-5,7-dimethyltricyclo[3.3.1.1^3,7]dec-1-yl]methyl}-5-methyl-1H-pyrazol-4-yl)-6-[8-(1,3-benzothiazol-2-ylcarbamoyl)-5-cyano-3,4-dihydroisoquinolin-2(1H)-yl]pyridine-2-carboxylic acid] |
| 0.014 nM | < 0.001 nM | 1.8 nM | COCCNCCOC12CC3(C)CC(C)(CC(Cn4ncc(-c5ccc(-c6ccc7c(c6)N(C(=O)Nc6nc8ccccc8s6)CCC7)nc5C(=O)O)c4C)(C3)C1)C2 [Compound W3.14, 6-[1-(1,3-benzothiazol-2-ylcarbamoyl)-1,2,3,4-tetrahydroquinolin-7-yl]-3-{1-[(3-{2-[(2-methoxyethyl)amino]ethoxy}-5,7-dimethyltricyclo[3.3.1.1^3,7]dec-1-yl)methyl]-5-methyl-1H-pyrazol-4-yl}pyridine-2-carboxylic acid] |
| 0.1 nM | < 0.001 nM | 2.5 nM | COCCNCCOC12CC3(C)CC(C)(CC(Cn4ncc(-c5ccc(-c6ccc7cccc(C(=O)Nc8nc9ccccc9s8)c7c6)nc5C(=O)O)c4C)(C3)C1)C2 [Compound W3.15, 6-[8-(1,3-benzothiazol-2-ylcarbamoyl)naphthalen-2-yl]-3-{1-[(3-{2-[(2-methoxyethyl)amino]ethoxy}-5,7-dimethyltricyclo[3.3.1.1^3,7]dec-1-yl)methyl]-5-methyl-1H-pyrazol-4-yl}pyridine-2-carboxylic acid] |
| 0.14 nM | < 0.001 nM | 3.7 nM | Cc1c(-c2ccc(N3CCc4cccc(C(=O)Nc5nc6ccccc6s5)c4C3)nc2C(=O)O)cnn1CC12CC3(C)CC(C)(C1)CC(OCCNC1COC1)(C3)C2 [Compound W3.16, 6-[8-(1,3-benzothiazol-2-ylcarbamoyl)-3,4-dihydroisoquinolin-2(1H)-yl]-3-[1-({3,5-dimethyl-7-[2-(oxetan-3-ylamino)ethoxy]tricyclo[3.3.1.1^3,7]dec-1-yl}methyl)-5-methyl-1H-pyrazol-4-yl]pyridine-2-carboxylic acid] |
| 0.19 nM | 0.038 nM | 14 nM | Cc1c(-c2ccc(N3CCc4cccc(C(=O)Nc5nc6ccccc6s5)c4C3)nc2C(=O)O)cnn1CC12CC3(C)CC(C)(C1)CC(OCCNCCS(N)(=O)=O)(C3)C2 [Compound W3.18, 6-[8-(1,3-benzothiazol-2-ylcarbamoyl)-3,4-dihydroisoquinolin-2(1H)-yl]-3-{1-[(3,5-dimethyl-7-{2-[(2-sulfamoylethyl)amino]ethoxy}tricyclo[3.3.1.1^3,7]dec-1-yl)methyl]-5-methyl-1H-pyrazol-4-yl}pyridine-2-carboxylic acid] |
| 309 nM | 21 nM | > 10000 nM | Cc1c(-c2ccc(N3CCc4scc(C(=O)Nc5nc6ccccc6s5)c4C3)nc2C(=O)O)cnn1CC12CC3(C)CC(C)(C1)CC(OCCN)(C3)C2 [Compound W3.19, 3-(1-{[3-(2-aminoethoxy)-5,7-dimethyltricyclo[3.3.1.1^3,7]dec-1-yl]methyl}-5-methyl-1H-pyrazol-4-yl)-6-[3-(1,3-benzothiazol-2-ylcarbamoyl)-6,7-dihydrothieno[3,2-c]pyridin-5(4H)-yl]pyridine-2-carboxylic acid] |
| 0.014 nM | < 0.01 nM | 18.2 nM | Cc1c(-c2ccc(N3CCn4c(C(F)(F)F)nc(C(=O)Nc5nc6ccccc6s5)c4C3)nc2C(=O)O)cnn1CC12CC3(C)CC(C)(C1)CC(OCCN)(C3)C2 [Compound W3.20, 3-(1-{[3-(2-aminoethoxy)-5,7-dimethyltricyclo[3.3.1.1^3,7]dec-1-yl]methyl}-5-methyl-1H-pyrazol-4-yl)-6-[1-(1,3-benzothiazol-2-ylcarbamoyl)-3-(trifluoromethyl)-5,6-dihydroimidazo[1,5-a]pyrazin-7(8H)-yl]pyridine-2-carboxylic acid] |
| 8.14 nM | 0.794 nM | 2210 nM | CNCCOC12CC3(C)CC(C)(CC(Cn4ncc(-c5ccc(N6CCc7c(N)ccc(C(=O)Nc8nc9ccccc9s8)c7C6)nc5C(=O)O)c4C)(C3)C1)C2 [Compound W3.24, 6-[5-amino-8-(1,3-benzothiazol-2-ylcarbamoyl)-3,4-dihydroisoquinolin-2(1H)-yl]-3-[1-({3,5-dimethyl-7-[2-(methylamino)ethoxy]tricyclo[3.3.1.1^3,7]dec-1-yl}methyl)-5-methyl-1H-pyrazol-4-yl]pyridine-2-carboxylic acid] |
| 0.9 nM | 0.138 nM | 424 nM | CNCC#Cc1cc2c(c(C(=O)Nc3nc4ccccc4s3)c1)CN(c1ccc(-c3cnn(CC45CC6(C)CC(C)(C4)CC(OCCOC)(C6)C5)c3C)c(C(=O)O)n1)CC2 [Compound W3.25, 6-[8-(1,3-benzothiazol-2-ylcarbamoyl)-6-[3-(methylamino)prop-1-yn-1-yl]-3,4-dihydroisoquinolin-2(1H)-yl]-3-(1-{[3-(2-methoxyethoxy)-5,7-dimethyltricyclo[3.3.1.1^3,7]dec-1-yl]methyl}-5-methyl-1H-pyrazol-4-yl)pyridine-2-carboxylic acid] |
| 0.083 nM | < 0.02 nM | 4.3 nM | CNCCOC12CC3(C)CC(C)(CC(Cn4ncc(-c5ccc(-c6ccc7cncc(C(=O)Nc8nc9ccccc9s8)c7c6)nc5C(=O)O)c4C)(C3)C1)C2 [Compound W3.26, 6-[4-(1,3-benzothiazol-2-ylcarbamoyl)isoquinolin-6-yl]-3-[1-({3,5-dimethyl-7-[2-(methylamino)ethoxy]tricyclo[3.3.1.1^3,7]dec-1-yl}methyl)-5-methyl-1H-pyrazol-4-yl]pyridine-2-carboxylic acid] |
